{"source": "paper PMC8154581", "about": "“Discovery of Novel Thiophene-arylamide Derivatives as DprE1 Inhibitors with Potent Antimycobacterial Activities” (Journal of Medicinal Chemistry, 2021)", "key": {"in vitro [1]": {"assay": "in vitro", "details": "human, hepatocytes"}, "hERG K+ channel": {"biological_target": "hERG K+ channel (Homo sapiens, UniProt Q12809)", "sequence (Q12809 whole entry)": "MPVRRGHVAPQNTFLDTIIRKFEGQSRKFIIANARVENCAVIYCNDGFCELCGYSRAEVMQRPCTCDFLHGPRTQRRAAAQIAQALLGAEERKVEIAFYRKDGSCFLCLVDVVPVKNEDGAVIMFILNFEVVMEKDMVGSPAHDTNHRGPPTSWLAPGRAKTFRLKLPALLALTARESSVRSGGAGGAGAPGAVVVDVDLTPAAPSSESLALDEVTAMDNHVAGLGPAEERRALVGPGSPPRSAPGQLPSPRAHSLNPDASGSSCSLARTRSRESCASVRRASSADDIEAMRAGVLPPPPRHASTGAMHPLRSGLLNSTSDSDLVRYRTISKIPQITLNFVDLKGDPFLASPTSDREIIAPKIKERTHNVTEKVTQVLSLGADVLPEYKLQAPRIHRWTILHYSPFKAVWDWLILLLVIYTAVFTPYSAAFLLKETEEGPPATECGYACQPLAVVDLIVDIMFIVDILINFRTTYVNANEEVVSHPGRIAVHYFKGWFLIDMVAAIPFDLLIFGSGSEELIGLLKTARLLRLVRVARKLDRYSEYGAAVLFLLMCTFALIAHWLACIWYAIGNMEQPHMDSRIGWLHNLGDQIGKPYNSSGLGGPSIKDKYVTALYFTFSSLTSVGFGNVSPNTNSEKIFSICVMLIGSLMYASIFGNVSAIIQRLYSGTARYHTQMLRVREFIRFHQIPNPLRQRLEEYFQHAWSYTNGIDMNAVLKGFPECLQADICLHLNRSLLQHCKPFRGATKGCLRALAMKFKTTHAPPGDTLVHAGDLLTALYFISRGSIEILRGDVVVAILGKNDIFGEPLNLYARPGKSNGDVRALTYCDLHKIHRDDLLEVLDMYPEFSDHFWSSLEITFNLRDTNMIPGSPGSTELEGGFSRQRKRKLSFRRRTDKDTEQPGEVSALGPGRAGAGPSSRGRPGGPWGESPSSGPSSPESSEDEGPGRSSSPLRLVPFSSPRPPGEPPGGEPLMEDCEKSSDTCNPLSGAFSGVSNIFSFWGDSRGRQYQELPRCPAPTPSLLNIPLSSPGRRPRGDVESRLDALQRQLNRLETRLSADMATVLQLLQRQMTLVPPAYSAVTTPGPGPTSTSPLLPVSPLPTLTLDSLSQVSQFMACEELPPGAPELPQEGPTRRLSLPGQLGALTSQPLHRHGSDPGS", "assay": "Inhibition of the hERG K+ channel, electrophysiology"}, "in vitro [2]": {"assay": "in vitro", "details": "male, mouse, hepatocytes"}, "in vitro [3]": {"assay": "in vitro", "details": "human"}, "Mt-DprE1": {"biological_target": "Mt-DprE1 (Mycobacterium tuberculosis, UniProt P9WJF1)", "sequence (P9WJF1 whole entry, looked up)": "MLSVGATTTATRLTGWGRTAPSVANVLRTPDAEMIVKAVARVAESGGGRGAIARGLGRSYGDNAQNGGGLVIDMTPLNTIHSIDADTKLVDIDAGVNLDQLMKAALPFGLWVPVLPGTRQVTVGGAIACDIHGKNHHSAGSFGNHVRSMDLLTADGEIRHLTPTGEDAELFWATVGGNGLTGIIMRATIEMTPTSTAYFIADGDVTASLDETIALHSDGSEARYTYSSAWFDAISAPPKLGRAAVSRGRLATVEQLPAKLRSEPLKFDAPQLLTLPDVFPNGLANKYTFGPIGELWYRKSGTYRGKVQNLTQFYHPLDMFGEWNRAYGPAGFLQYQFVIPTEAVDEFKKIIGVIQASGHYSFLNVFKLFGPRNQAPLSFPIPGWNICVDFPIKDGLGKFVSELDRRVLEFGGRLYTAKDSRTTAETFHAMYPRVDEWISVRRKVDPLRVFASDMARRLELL", "type": "biochemical, M. tuberculosis"}, "Vero cells": {"test_system": "Vero cells", "assay": "Cytotoxicity assay in Vero cells (MTT)", "type": "cell-based", "details": "Chlorocebus sabaeus, Vero, 48 h, read-out: IC50 (Vero)"}, "M. tuberculosis H37Rv": {"test_system": "M. tuberculosis H37Rv", "assay": "MIC against replicating M. tuberculosis H37Rv, microplate Alamar blue assay (MABA)", "type": "cell-based", "details": "Mycobacterium tuberculosis, H37RV"}, "M. tuberculosis": {"test_system": "M. tuberculosis", "design": "method as in PMID 19299584, PMID 24500695", "details": "antimycobacterial activity; cited from earlier work"}}, "note": "Read-outs that look alike come from different tables or passages of the source."}
{"smiles": "CCOC(=O)NC(=O)c1ccsc1NC(=O)c1ccc(C(=O)N2CCCCC2)s1", "note": "[Compound 24j, Ethyl (2-(5-(Piperidine-1-carbonyl)thiophene-2-carboxamido)thiophene-3-carbonyl)carbamate]", "values": [{"measurement": "half-life at 1 µM", "setting": "in vitro [1]", "result": 72.5, "unit": "min"}, {"measurement": "remaining at 0.5 h, 1 µM", "setting": "in vitro [1]", "result": 75.1, "unit": "%"}, {"measurement": "IC50", "setting": "hERG K+ channel", "result": 28.3, "unit": "µM"}, {"measurement": "half-life at 1 µM", "setting": "in vitro [2]", "result": 19.3, "unit": "min"}, {"measurement": "remaining at 0.5 h, 1 µM", "setting": "in vitro [2]", "result": 34, "unit": "%"}, {"measurement": "IC50", "setting": "in vitro [3]", "result": "> 64", "unit": "µg/mL"}, {"measurement": "melting point", "result": "175 to 176", "unit": "°C"}, {"measurement": "IC50 DprE1", "setting": "Mt-DprE1", "result": "0.3 ± 0.1", "unit": "µg/mL"}, {"measurement": "IC50", "setting": "Vero cells", "result": "> 64", "unit": "µg/mL"}, {"measurement": "MIC", "setting": "M. tuberculosis H37Rv; against M. tuberculosis H37Rv, Tables 1-3, read-out: MIC", "result": 0.14, "unit": "µg/mL"}, {"measurement": "MIC", "setting": "M. tuberculosis H37Rv; supplementary CSV, same values as Tables 1-3, read-out: Minimal inhibit concentration", "result": 0.14, "unit": "µg/mL"}, {"measurement": "MIC", "setting": "M. tuberculosis H37Rv; Table 4, read-out: MIC H37Rv", "result": 0.059, "unit": "µg/mL"}]}
{"smiles": "O=c1nc(N2CCN(CC3CCCCC3)CC2)sc2c([N+](=O)[O-])cc(C(F)(F)F)cc12", "note": "[PBTZ169]", "values": [{"measurement": "MICs", "setting": "M. tuberculosis", "result": "< 0.016", "unit": "µg/mL"}, {"measurement": "MIC", "setting": "M. tuberculosis H37Rv; Table 4, read-out: MIC H37Rv", "result": 0.0001, "unit": "µg/mL"}]}
